Where a SMILES comes first, the peptide text is derived from it. The star is where a group is joined. X1 = CN(C)c1ccc2c(-c3ccc(C(=O)*)cc3C(=O)[O-])c3ccc(=[N+](C)C)cc-3oc2c1
What was measured:
Ca922 cells [1] = assay: WST-8 cell viability assay, Ca922; format: cell-based, human; conditions: for cytotoxicity (cell viability): 48 hours
Protocol: (§1) Human oral squamous cell carcinoma (OSCC) cell lines, Ca922, OSC20, OECM-1, OC3, CGHNC9, HSC3, plus A549, MDA-MB-231, MCF7, Huh7, HeLa-Kyoto, Detroit 562, H520, H2170, and 293T cells were used in this study. Ca922, CGHNC9, MDA-MB-231, MCF7, Huh7, HeLa-Kyoto, Detroit 562, and 293T cells were all cultured in high-glucose Dulbecco's Modified Eagle Medium (DMEM). OSC20 and HSC3 cells were cultured in Dulbecco's Modified of Eagle's Medium/Ham's F-12 50/50 Mix (1:1). OECM-1, A549, H520, and H2170 cells were grown in RPMI-1640 medium. All culture media were supplemented with 10% fetal bovine serum (FBS) and 1% penicillin-streptomycin. OC3 cells were cultured in 1:1 DMEM/KSFM (keratinocyte serum-free medium) with supplied supplement of Bovine pituitary extract (BPE) and epidermal growth factor (EGF) followed by instruction. All the cells in this study were maintained at 37° C. in humidified atmosphere containing 5% CO2.
(§2) WST-8 [2-(2-methoxy-4-nitrophenyl)-3-(4-nitrophenyl)-5-(2,4-disulfophenyl)-2H-tetrazolium, monosodium salt] cell viability assay
Cells were seeded into 96 well plate and incubated at 37° C. overnight. Endpoint measures of TMR-GBP or drugs were performed by water soluble tetrazolium salt (WST-8)-based colorimetric assay in triplicate which measures the metabolic conversion of WST-8 into formazan by mitochondrial dehydrogenases present in viable cells. The amount of formazan produced is proportional to the number of live cells and is expressed as cellular viability. When time was up, media were removed and supplemented with WST-8 cell viability reagent-contained cell culture medium (1:10) and incubated at 37° C. for 2 hours. Besides, three wells with WST-8-dissolved medium only (without cells) were reserved as a background control. Cell viability was measured at the absorbance of 450/655 nm wavelength by ELISA reader.

Ca922 cells [2] = assay: Time-lapse live cell imaging, Ca922; format: cell-based
Protocol: Ca922 cells were grown on 35 mm culture dishes overnight then treated with 1% DMSO, 12.5 μM TMR, GBP, TMR-GBP respectively and monitored by time-lapse live cell microscope. Cells were exposed to indicate wavelength once every 4 hours for 100 ms and continuously for 20 hours. At least 300 cells in five different fields were counted for each experiment using microcopy that captured images under 10× magnification. Mortality rate was evaluated by counting the percentage of dead cells in the whole population. Standard deviations of three independent experiments were indicated as bars.
(§3) Time-Lapse Live Cell Imaging
(§4) In order to monitor cell morphology and the stability of TMR-GBP, cells were incubated in 35 mm dish or 4 well dish at 37° C. overnight. Replaced the culture medium with CO2-independent medium with supplement of 10% fetal bovine serum (FBS) and 1% penicillin-streptomycin, cells were treated with reagent (TMR, GBP, TMR-GBP) for the time according to the experiment and subjected to time-lapse live cell imaging. Cells were maintained on the microscope stage incubator at 37° C. Multiple-positional time-lapse imaging was performed using an automated Leica DMI6000 inverted microscope equipped with an HCX PL FL 20λ/NA0.4 objective and Andor Luca R EMCCD camera. Images of cells were taken at different interval time and analyzed by MetaMorph software.

Ca922 cells [3] = assay: Annexin V staining with flow cytometry; format: cell-based, human; conditions: Ca922, 12.5 μM TMR-GBP, FIG. 6B
Protocol: […] Diluted 10× Binding Buffer to 1× using distilled water. Washed cells once in PBS, then once in 1× Binding Buffer. Resuspended cells in 1× Binding Buffer at 1-5×10^6/mL. Next, added 5 μL of fluorochrome-conjugated Annexin V to 100 μL of the cell suspension. Sample was incubated 10-15 minutes at room temperature. Afterwards, washed cells in 1× Binding Buffer and resuspend in 200 μL of 1× Binding Buffer. Analyzed by flow cytometry within 4 hours, storing at 2-8° C. in the dark.

MDA-MB-231 = assay: WST-8 cell viability assay, MDA-MB-231; format: cell-based; conditions: MDA-MB-231 (breast cancer), different concentrations, 48 hours, FIG. 3
Protocol: as §1, §2
Cells were seeded into 96 well plate and incubated at 37° C. overnight. […] The amount of formazan produced is proportional to the number of live cells and is expressed as cellular viability. […] Cell viability was measured at the absorbance of 450/655 nm wavelength by ELISA reader.

Caspase-3 = assay: Western blotting of Caspase-3; format: cell-based, human; conditions: Ca922, 25 μM, treatment time up to 48 hours, FIG. 11B, 11C
Protocol: (§5) Protein lysate of Ca922 cells treated with TMR-GBP 25 μM were blotted with antibodies against Caspase-3, Caspase-7, Caspase-9 and Poly (ADP-ribose) polymerase (PARP). Representative blots are shown.
Ca922 cells were treated with TMR-GBP and collected at indicated time points. Then blotted for Caspase-3 to observe whether TMR-GBP triggered […] apoptosis pathway.
(§6) Western Blotting Analysis
(§7) Cells were harvested by trypsion or scratch and lysed in RIPA buffer (50 mM Tris-HCl, pH 7.4, 150 mM NaCl, 0.1% SDS, 0.5% Sodium deoxycholate, 1% NP-40) supplemented with 1× protease inhibitor cocktail. Sample was incubated on ice for 30 minutes and scraped every 10 minutes. Centrifuge at 13,000 rpm at 4° C. for 15 minutes, then collect supernatant for analysis. Protein concentration was determined by Bradford assay. First, 5× Bradford assay dye reagent was diluted into […], and mixture with RIPA (as standard) or samples. Concentration was obtained by spectrophotometer measurement. Equal volume of 2× laemmli buffer containing β-ME was added into protein lysate for goal concentration. […] Washing the membrane three times with 1×PBST for every 5 minutes, protein band was detected by modified ECL (ddH2O, […] Tris pH8.0, 200 μM p-coumaric acid, 1.25 mM luminal, 0.001% H2O2) with ImageQuant LAS 4000 digital imaging system.

A549 = assay: Time-lapse live cell imaging, A549; format: cell-based; conditions: A549, unbound TMR-GBP removed, imaged at 15 minutes interval for 16 hours, FIG. 4
Protocol: as §3, §4

Caspase-9 = assay: Western blotting of Caspase-9; format: cell-based, human; conditions: Ca922, 25 μM, FIG. 11B
Protocol: as §5, §6
as §7, with “concentration. Protein samples were boiled at 100° C. for 15 minutes and resolved by 10% SDS-PAGE gel or 4%-15% gradient gel. Then, transfer to PVDF membrane by 100V or 110V voltage for 1 hour.” for “concentration.”

CN(C)c1ccc2c(-c3ccc(C(=O)N[C@@H](CC(N)=O)C(=O)N[C@@H](Cc4ccc(O)cc4)C(=O)N[C@@H](CCCNC(=N)N)C(=O)N[C@@H](Cc4c[nH]c5ccccc45)C(=O)N[C@@H](CCCNC(=N)N)C(=O)N[C@@H](CS)C(=O)N[C@@H](CCCCN)C(=O)N[C@@H](CC(N)=O)C(=O)N[C@@H](CCC(N)=O)C(=O)N[C@@H](CC(N)=O)C(=O)O)cc3C(=O)[O-])c3ccc(=[N+](C)C)cc-3oc2c1 [TMR-GBP] (X1-NYRWRCKNQN-OH; N-terminus and C-terminus assumed)
cytotoxicity (cell viability) (Ca922 cells [1]; Ca922 (oral cancer), different concentrations, FIG. 5): could induce cytotoxicity
TMR-GBP induced cytotoxicity after NAC pretreatment (Ca922 cells [1]; Ca922, NAC pretreated 2 hours, then TMR-GBP 0, 12.5, 25 or 50 μM for 48 hours, FIG. 8B): partially suppressed by NAC
TMR-GBP induced cytotoxicity, dependence on calcium (Ca922 cells [1]; Ca922, calcium chelators BAPTA-AM, EGTA pretreated 2 hours, then TMR-GBP 48 hours, FIG. 8B): independent of calcium release
cytotoxicity (cell viability) (Ca922 cells [1]; Ca922 cells, 50 μM, FIG. 1): could induce cytotoxicity
cytotoxicity under light stress (mortality) (Ca922 cells [2]; Ca922, 12.5 μM, exposed to 532 nm, 488 nm, 405 nm and brightfield, after 20 hours, FIG. 2): more sensitive to 532 nm light stress and displayed cytotoxic effects
cell death by time-lapse microscopy (Ca922 cells [2]; Ca922, unbound TMR-GBP removed, imaged at 15 minutes interval for 16 hours, FIG. 4): most cells die in 8 hours
apoptosis by Annexin-V-FITC labeling (Ca922 cells [3]): positively labeled by Annexin-V-FITC
cell viability (MDA-MB-231): not markedly affected
activation of caspase-3 (Caspase-3): did not activate
cell death by time-lapse microscopy (A549): still alive after long-term TMR-GBP treatment
activation of caspase-9 (Caspase-9): did not activate

Reference: US11129867B2, “Method of treating cancer cells” (priority 2017, dated 2021)
